The source of these data is patent US9725477B2, “Platinum compounds of malonic acid derivative having leaving group containing amino or alkylamino” (BEIJING FSWELCOME TECHNOLOGY DEVELOPMENT CO., LTD, priority 2012, dated 2017).

In general, IC50 refers to the point on the concentration scale where inhibition reaches its midpoint. In general, solubility refers to the dissolved amount per volume that the medium holds. One may read the LD50 as the dose at which mortality reaches 50%.

Structures can show the parent of a compound that is named as a salt. Where two headings read alike, the source gives them in different places.

One data set concerns Breast cancer MCF-7. Kind of data set: MTT cytotoxicity, breast cancer MCF-7. The data set is classed as cell-based. As to conditions: Breast cancer MCF-7, MTT, n = 6.
Another data set has as its system Lung cancer A549. Kind of data set: MTT cytotoxicity, lung cancer A549. As to conditions: read-out: cytotoxicity IC50; Lung cancer A549, MTT, n = 6, Table 4. The method, then: Cell morphologies were observed after being cultivated for 24 hours.
In a further data set the test system is normal mice. Kind of data set: in vivo. As to conditions: Table 3; mice, single intravenous administration, 14 days observation. The method, then:
(§1) Kunming mice with 4˜6 weeks old and 18 g˜22 g by weight were taken, 50% males and 50% females. […] The condition of mortality and toxicity were observed after administration. Totally observing for 14 days, LD50 value was calculated using Bliss method according to the mortality.

For data set [1], the system named is Breast cancer MCF-7 cisplatin resistance strain. Kind of data set: MTT cytotoxicity, breast cancer MCF-7 cisplatin resistance strain. The data set is classed as cell-based. As to conditions: n = 6.
The test system of another data set is Lung cancer H292. Kind of data set: MTT cytotoxicity, lung cancer H292. The data set is classed as cell-based.
A further data set in a line: in vivo. Particulars: both, Kunming, mouse, in vivo, iv. The protocol: as §1
Another data set concerns Esophagus cancer ECA109. Kind of data set: MTT cytotoxicity, esophagus cancer ECA109. The data set is classed as cell-based. As to conditions: n = 6.
The next data set has as its system Testis cell ST. Kind of data set: MTT cytotoxicity, testis cell ST. Format: cell-based. Particulars: n = 6.
In a further data set the test system is gastric cancer MGC803. Kind of data set: MTT cytotoxicity, gastric cancer MGC803. The data set is classed as cell-based. As to conditions: n = 6.
Data set [2] is described as follows: MTT cytotoxicity, alveolar epithelial cells BEAS-2B. Format: cell-based. As to conditions: human, BEAS-2B alveolar epithelial cells; Alveolar epithelial cells BEAS-2B, MTT, n = 6.
In data set [3] the test system is Alveolar epithelial cells BEAS-2B. The description is as above. The data set is classed as cell-based.
The next data set has as its system Lung cancer Lewis. Kind of data set: MTT cytotoxicity, lung cancer Lewis. Format: cell-based.
Another data set has as its system colon cancer SW480. Kind of data set: MTT cytotoxicity, colon cancer SW480. The data set is classed as cell-based.
Data set [4] in a line: MTT cytotoxicity, testis cell ST. Particulars: pig, ST testis cells, n = 6. The data set is classed as cell-based.
The conditions of data set [5]: existing platinum drugs, background section; cited from earlier work.
Setting [6] is: Lung cancer H292, MTT, n = 6, read-out: cytotoxicity IC50.
Where [7] appears, read: compound of the example (salt form) in water.
[8] abbreviates: Alveolar epithelial cells BEAS-2B, MTT, n = 6, read-out: cytotoxicity IC50.
[9] abbreviates: Lung cancer Lewis, MTT, n = 6, read-out: cytotoxicity IC50.
Where [10] appears, read: colon cancer SW480, MTT, n = 6, read-out: cytotoxicity IC50.

As for `CCN(CC)CCCCC1C(=O)[O][Pt]2([NH]C3CCCCC3[NH]2)[O]C1=O.Cc1ccc(S(=O)(=O)O)cc1` (racemic) [Compound 3, 2-(4-diethylaminobutyl)-malonate•cis-(1,2-trans-cyclohexanediamine) platinum (II) tosilate], the IC50 in the data set with Breast cancer MCF-7 turned out to be 7 µM; in the data set with Lung cancer A549 it was 8 µM; in data set [1] it was 21 µM; in the data set with Lung cancer H292 (setting [6]), 6 µM. Also, the “LD50 vALUE” with normal mice amounted to 0.815 mmol/kg.
`CCN(CC)CCCCC1C(=O)[O][Pt]([NH2])([NH2])[O]C1=O` [Compound 1, 2-(4-diethylaminobutyl)-malonate•cis-diamine platinum (II) acetate] had a solubility in “Solubility in water” (water) above 300 mg/mL. Besides, the LD50 in “in vivo” is 746 µmol/kg.
Take `CCN(CC)CCCCC1C(=O)[O][Pt][O]C1=O.NC1CCC(N)CC1.O=P(O)(O)O` [Compound 23, 2-(4-diethylaminobutyl)-malonate•cis-1,4-cyclohexanediamine platinum (II) phosphate]: in the data set “Solubility in water” (setting [7]), the solubility entry was “more than 300 mg/ml”. Moreover, the IC50 is 66 µM in the data set on Esophagus cancer ECA109, 14 µM with Lung cancer H292 (setting [6]), 8 µM with Testis cell ST and 5 µM in the data set with gastric cancer MGC803.
For `CCN(CC)CCCCC1C(=O)[O][Pt]2([NH]CC3CCC3C[NH]2)[O]C1=O.O=P(O)(O)O` (racemic) [Compound 22, 2-(4-diethylaminobutyl)-malonate•cis-1,4-(trans-2,3-cyclobutyl)-butanediamine platinum (II) phosphate], in that order: “more than 300 mg/ml”, 102 µM, 5 µM, 14 µM and 7 µM.
For `[NH2][Pt]1([NH2])[O]C(=O)C(CCCCN2CCCC2)C(=O)[O]1` [Compound 5, 2-(4-(1-tetrahydropyrrolidinyl)-butyl)-malonate•cis-diamine platinum (II) phosphate], the solubility in the data set “Solubility in water” (water) was above 300 mg/mL. In [2], this compound came in with an IC50 of 2 µM. In “in vivo”, this compound showed an LD50 of 845 µmol/kg.
For the compound `Cc1ccc(S(=O)(=O)O)cc1.O=C1[O][Pt]2([NH]C3CCCCC3[NH]2)[O]C(=O)C1CCCCN1CCCCC1` (racemic) [Compound 9, 2-(4-(1-piperidyl)-butyl)-malonate•cis-(1,2-trans-cyclohexanediamine) platinum (II) tosilate], the IC50 in [3] turned out to be 2 µM; in the data set with Lung cancer Lewis, 50 µM; with colon cancer SW480 it was 14 µM; in the data set on Lung cancer H292, 8 µM. Further, in the data set with normal mice, the “LD50 vALUE” was 0.725 mmol/kg.
In “Solubility in water” (water), `CCN(CC)CCCCC1C(=O)[O][Pt]([NH2])([N]2CCCCC2)[O]C1=O` (stereo not drawn) [Compound 28, 2-(4-diethylaminobutyl)-malonate•cis-ammonia•piperidine platinum (II) acetate] gave a solubility above 300 mg/mL. This compound returned a median lethal dose (LD50) at 14 days in “in vivo” of 725 µmol/kg. The compound further displayed an IC50 in [4] of 61 µM.
In the case of “2-(4-ethyl aminobutyl)-malonate•cis-(1, 2-trans-cyclohexanediamine) platinum (II) phosphate [Compound 12]”, the IC50 was determined as 8 µM in [3], 18 µM in the data set with Lung cancer Lewis, 18 µM with colon cancer SW480 and 6 µM with Lung cancer H292. The “LD50 vALUE” in the data set with normal mice is listed as 0.729 mmol/kg.
In the case of `CCN(CC)CCCCC1C(=O)[O][Pt]2([NH]CC3(CCOCC3)C[NH]2)[O]C1=O.O=P(O)(O)O` [Compound 24, 2-(4-diethylaminobutyl)-malonate•cis-1,3-(2,2-(4-oxacyclohexyl))-propanediamine•platinum (II) phosphate], in the data set “Solubility in water” (setting [7]), the solubility entry is “more than 300 mg/ml”. Besides, the IC50 in the data set on Esophagus cancer ECA109 turned out to be 52 µM; in the data set on Lung cancer H292 (setting [6]) it was 3 µM; with Testis cell ST it was 6 µM; with gastric cancer MGC803, 3 µM.
As to `CC1CCCN1CCCCC1C(=O)[O][Pt]([NH2])([NH2])[O]C1=O` (stereo not drawn) [Compound 10, 2-(4-(2-methyl-1-tetrahydropyrrolidinyl)-butyl)-malonate•cis-diamine platinum (II) phosphate], in “Solubility in water” (water), the solubility is above 300 mg/mL. In data set [2], this compound displayed an IC50 of 3 µM. In “in vivo”, this compound gave an LD50 of 791 µmol/kg.
As to `CN(C)C1CC(C2C(=O)[O][Pt]([NH2])([NH2])[O]C2=O)C1` (stereo not drawn) [Compound 6, 2-(3-dimethylaminocyclobutyl)-malonate•cis-diamine platinum (II) mesylate], in the data set “Solubility in water” (water), the solubility is above 300 mg/mL. Also, it took 3 µM to reach half-maximal inhibition in data set [2] (IC50). Moreover, in “in vivo”, the LD50 was 756 µmol/kg.
Regarding “2-(4-di-n-propylaminobutyl)-malonate•cis-diamine platinum (II) phosphate [Compound 7]”, the IC50 in [3] worked out at 4 µM; in the data set with Lung cancer Lewis, 21 µM; in the data set on colon cancer SW480, 10 µM; in the data set on Lung cancer H292, 4 µM. The “LD50 vALUE” in the data set on normal mice turned out to be 0.778 mmol/kg.
With `[NH2][Pt]1([NH2])[O]C(=O)C(CCCCN2CCCCC2)C(=O)[O]1` [Compound 4, 2-(4-(1-piperidyl)-butyl)-malonate•cis-diamine platinum (II) phosphate], in the data set “Solubility in water” (water), the solubility was above 300 mg/mL. The LD50 in “in vivo” was found to be 823 µmol/kg.
For the compound `CCN(CC)CCCCC1C(=O)[O][Pt]2([NH]C3CCCC3[NH]2)[O]C1=O.O=P(O)(O)O` (racemic) [Compound 14, 2-(4-diethylaminobutyl)-malonate•cis-(1,2-trans-cyclopentanediamine) platinum (II) phosphate], the solubility entry in “Solubility in water” (setting [7]) was “more than 300 mg/ml”. Also, the IC50 in data set [3] (setting [8]) was found to be 5 µM; with Lung cancer Lewis (setting [9]), 36 µM; in the data set on colon cancer SW480 (setting [10]) it was 17 µM; in the data set on Lung cancer H292 (setting [6]), 12 µM. Besides, the “LD50 vALUE” in the data set on normal mice is reported as 0.866 mmol/kg.
For `CCN(CC)CC(C)CCC1C(=O)[O][Pt]([NH2])([NH2])[O]C1=O` (stereo not drawn) [Compound 8, 2-(3-methyl-4-diethylaminobutyl)-malonate•cis-diamine platinum (II) acetate], the solubility in the data set “Solubility in water” (water) is above 300 mg/mL. In data set [2], this compound displayed an IC50 of 5 µM. Further, the LD50 in the data set “in vivo” was 801 µmol/kg.
Regarding `NCCCCC1C(=O)[O][Pt]2([NH]C3CCCCC3[NH]2)[O]C1=O.O=P(O)(O)O` (racemic) [Compound 11, 2-(4-aminobutyl)-malonate•cis-(1,2-trans-cyclohexanediamine) platinum (II) phosphate], the IC50 came to 2 µM in [3], 49 µM in the data set on Lung cancer Lewis, 21 µM with colon cancer SW480 and 5 µM in the data set with Lung cancer H292. Moreover, the “LD50 vALUE” in the data set with normal mice is recorded as 0.803 mmol/kg.
Take “2-(4-diethylaminobutyl)-malonate•cis-ammonia•cyclopentylamine platinum (II) acetate [Compound 26]”: the IC50 in the data set with Esophagus cancer ECA109 turned out to be 91 µM; in the data set with Lung cancer H292 (setting [6]), 4 µM; in the data set with Testis cell ST it was 11 µM; in the data set on gastric cancer MGC803, 1 µM.
Consider `N.N.O=C([O-])C1(C(=O)[O-])CCC1.[Pt+2]` [Carboplatin, cis-1,1-cyclobutanedicarboxylatodiamminoplatinum, reference compound], for which the IC50 in the data set with Breast cancer MCF-7 worked out at 103 µM; with Lung cancer A549, 232 µM; in [3] (setting [8]), 37 µM; in the data set with Lung cancer Lewis (setting [9]), 38 µM; in the data set with colon cancer SW480 (setting [10]) it was 87 µM; in the data set with Esophagus cancer ECA109 it was 52 µM. For the same compound, the IC50 in data set [1] was found to be 255 µM; in the data set with Lung cancer H292 (setting [6]) it was 55 µM; with Testis cell ST, 195 µM; in the data set on gastric cancer MGC803, 625 µM. Also, in [5], the solubility is 17.8 mg/mL. In the data set with normal mice, the “LD50 vALUE” stood at 0.336 mmol/kg.
Regarding “2-(2-diethylaminobutyl)-malonate•cis-1,2-(1,2-dihydroxymethyl)-ethylenediamine platinum (II) phosphate [Compound 20]”, the IC50 in the data set on Esophagus cancer ECA109 turned out to be 17 µM; with Lung cancer H292 (setting [6]) it was 5 µM; in the data set on Testis cell ST, 11 µM; in the data set on gastric cancer MGC803 it was 4 µM.
